In PMC9289885, “Antimicrobial Peptides against Multidrug-Resistant Pseudomonas aeruginosa Biofilm from Cystic Fibrosis Patients” (Journal of Medicinal Chemistry, 2022):
Where two headings read alike, the source gives them in different places.

Experiments:
[1] = test system: P. aeruginosa CF patient isolates and PAO1; assay type: cell-based, Pseudomonas aeruginosa; conditions: PAO1, 24 h
Description: The MIC of the peptides was tested as previously described with minor adjustments.[50],[51] Briefly, peptide activity was examined in sterile 96-well polystyrene plates (Bar-Naor BN36010096D). Overnight cultures of P. aeruginosa were washed and resuspended in a BM2 medium. Aliquots of 50 μL of suspended bacteria (1 × 10^6 CFU/mL) were added to 50 μL of BM2 medium containing peptides in serial 2-fold dilutions (final concentration between 0.78 and 50 μM). Plates were incubated for 24 h at 37 °C while being agitated. Inhibition of growth was assessed by absorbance measurements at OD600 using a microplate auto reader. The MIC was defined as the concentration at which 90% inhibition of growth was observed after incubation for 24 h.

in vitro = conditions: pooled CF patient sputum diluted 10-fold with PBS, supernatant, 100 μM peptide, 37 °C
Description: (§1) The peptide stability in CF patient sputum was tested as previously described.[52] Briefly, individual sputum samples from CF patients were pooled and diluted 10-fold with Dulbecco’s phosphate-buffered saline without calcium and magnesium. The suspensions were thoroughly mixed and then centrifuged at 1000 rpm for 10 min. D,L-K6L9 peptides and LL-37 were added to the supernatant to a final concentration of 100 μM, and the mixture was incubated at 37 °C for several time intervals. The reaction was stopped by adding 10 μL of 10% hydrogen chloride (HCl) to the 55 μL mixture. Residual peptide concentrations were determined via RP-HPLC on a Vydac C18 column (Grace Discovery Sciences, Deerfield, IL) using a linear gradient from 20% to 60% ACN in water (both containing 0.1% TFA) for 50 min. Data are presented as a percentage of peptide compared to the mixture without incubation ± standard errors.

CF sputum proteases = test: in vitro; conditions: human, supernatant of pooled CF patient sputum, diluted 10-fold
Description: as §1

[2] = test system: P. aeruginosa clinical CF isolates biofilm; assay type: cell-based, Pseudomonas aeruginosa; conditions: 24 h
Description: The biofilm formation assay was performed as described for the MIC assay with some alterations and used either BM2 or CF patient sputum diluted 10-fold with BM2. Plates containing peptides at serial dilutions and bacteria were incubated for 24 h at 37 °C without agitation to allow biofilm formation. Unattached bacteria were then washed from plates, and the plates stained with 0.1% CV, followed by absorbance measurements at OD590 using a microplate auto reader. Data are presented as a percentage of the biofilm biomass compared to biofilm formed by untreated bacteria ± the standard error.

[3] = test system: P. aeruginosa CF isolates and PAO1; assay type: cell-based, Pseudomonas aeruginosa; conditions: 10 μM peptide, 1 h, 37 °C
Description: The suspensions were thoroughly mixed, centrifuged at 1000 rpm for 10 min, and filtered with a 0.22 μm filter. Supernatants were stored and used for killing assays and fluorescence microscopy, respectively. Then, 10^6 CFU/mL of P. aeruginosa was added to a 10% diluted sputum supernatant, followed by 10 μM peptides. The mixture was incubated at 37 °C for 1 h and then diluted and plated on freshly made LB agar plates.

mammalian cells = conditions: cited from earlier work
Source text: We investigated the antibiofilm and antimicrobial activities of a series of peptides containing nine leucines and six lysines each, with a net charge of +7 (Table 1).

With `CC(C)C[C@H](NC(=O)[C@H](CC(C)C)NC(=O)[C@@H](CC(C)C)NC(=O)[C@H](CC(C)C)NC(=O)[C@H](CCCCN)NC(=O)[C@H](CCCCN)NC(=O)[C@@H](CCCCN)NC(=O)[C@@H](CCCCN)NC(=O)[C@H](CCCCN)NC(=O)[C@@H](CCCCN)NC(=O)[C@H](CC(C)C)NC(=O)[C@H](CC(C)C)NC(=O)[C@@H](CC(C)C)NC(=O)[C@H](CC(C)C)NC(=O)[C@@H](N)CC(C)C)C(N)=O` (stereo in doubt) [Seg6D] the MIC [1] was at most 12.5 µM, the “degradation in CF sputum” value (in vitro; 6 h, RP-HPLC) was “protected entirely from degradation” and the metabolised at 24 h, 100 μM (CF sputum proteases) was about 30%. For the same molecule, the metabolised at 48 h, 100 μM (CF sputum proteases) was about 30%.
With `CC(C)C[C@H](NC(=O)[C@H](CC(C)C)NC(=O)[C@@H](CCCCN)NC(=O)[C@H](CC(C)C)NC(=O)[C@H](CC(C)C)NC(=O)[C@H](CCCCN)NC(=O)[C@@H](CCCCN)NC(=O)[C@@H](CC(C)C)NC(=O)[C@H](CC(C)C)NC(=O)[C@@H](CCCCN)NC(=O)[C@H](CCCCN)NC(=O)[C@H](CC(C)C)NC(=O)[C@@H](CC(C)C)NC(=O)[C@H](CCCCN)NC(=O)[C@@H](N)CC(C)C)C(N)=O` (stereo in doubt) [Amp1D] the “inhibition of biofilm formation” value [2] was about 50%, the MIC [1] was at most 3.12 µM and the “degradation in CF sputum” value (in vitro; 6 h, RP-HPLC) was “protected entirely from degradation”. For the same molecule, the metabolised at 48 h, 100 μM (CF sputum proteases) was about 30%.
In the case of `CC[C@H](C)[C@H](NC(=O)[C@H](CCCCN)NC(=O)[C@H](CCC(=O)O)NC(=O)[C@H](CCCCN)NC(=O)[C@H](CO)NC(=O)[C@H](CCCCN)NC(=O)[C@H](CCCNC(=N)N)NC(=O)[C@H](Cc1ccccc1)NC(=O)[C@H](Cc1ccccc1)NC(=O)[C@H](CC(=O)O)NC(=O)CNC(=O)[C@H](CC(C)C)NC(=O)[C@@H](N)CC(C)C)C(=O)NCC(=O)N[C@@H](CCCCN)C(=O)N[C@@H](CCC(=O)O)C(=O)N[C@@H](Cc1ccccc1)C(=O)N[C@@H](CCCCN)C(=O)N[C@@H](CCCNC(=N)N)C(=O)N[C@H](C(=O)N[C@H](C(=O)N[C@@H](CCC(N)=O)C(=O)N[C@@H](CCCNC(=N)N)C(=O)N[C@H](C(=O)N[C@@H](CCCCN)C(=O)N[C@@H](CC(=O)O)C(=O)N[C@@H](Cc1ccccc1)C(=O)N[C@@H](CC(C)C)C(=O)N[C@@H](CCCNC(=N)N)C(=O)N[C@@H](CC(N)=O)C(=O)N[C@@H](CC(C)C)C(=O)N[C@H](C(=O)N1CCC[C@H]1C(=O)N[C@@H](CCCNC(=N)N)C(=O)N[C@H](C(=O)N[C@@H](CCC(=O)O)C(=O)N[C@@H](CO)C(N)=O)[C@@H](C)O)C(C)C)[C@@H](C)CC)C(C)C)[C@@H](C)CC` [LL-37, reference compound], the “degradation in CF sputum” value (in vitro; 30 min, residual peptide by RP-HPLC vs no incubation) is reported as “fully degraded”, the killing rate ([3]; PAO1, 10% mixed CF sputum, 10^6 CFU/mL, colony count vs untreated) is reported as 11.48% and the killing rate ([3]; control isolate 895 in 895 CF diluted sputum) is reported as 97.57%. The killing rate ([3]; isolate 24, 10% mixed CF sputum, 10^6 CFU/mL, colony count vs untreated) was 13.23%, the killing rate ([3]; isolate 46, 10% mixed CF sputum, 10^6 CFU/mL, colony count vs untreated) was 11.73% and the killing rate ([3]; isolate 82, 10% mixed CF sputum, 10^6 CFU/mL, colony count vs untreated) was 34.24%.
In the case of `CC(C)C[C@H](NC(=O)[C@H](CC(C)C)NC(=O)[C@H](CCCCN)NC(=O)[C@H](CC(C)C)NC(=O)[C@H](CC(C)C)NC(=O)[C@H](CCCCN)NC(=O)[C@H](CCCCN)NC(=O)[C@H](CC(C)C)NC(=O)[C@H](CC(C)C)NC(=O)[C@H](CCCCN)NC(=O)[C@H](CCCCN)NC(=O)[C@H](CC(C)C)NC(=O)[C@H](CC(C)C)NC(=O)[C@H](CCCCN)NC(=O)[C@@H](N)CC(C)C)C(N)=O` [Amp1L], the metabolised at 3 h, 100 μM (CF sputum proteases) is listed as about 70%, the metabolised at 6 h, 100 μM (CF sputum proteases) is listed as about 80% and the “toxicity to mammalian cells” value (mammalian cells) is listed as “toxic to mammalian cells”.
With `CC(C)C[C@H](NC(=O)[C@H](CC(C)C)NC(=O)[C@@H](CC(C)C)NC(=O)[C@@H](CC(C)C)NC(=O)[C@H](CC(C)C)NC(=O)[C@@H](CC(C)C)NC(=O)[C@H](CC(C)C)NC(=O)[C@H](CC(C)C)NC(=O)[C@@H](CCCCN)NC(=O)[C@H](CCCCN)NC(=O)[C@@H](N)CCCCN)C(=O)N[C@@H](CC(C)C)C(=O)N[C@H](CCCCN)C(=O)N[C@@H](CCCCN)C(=O)N[C@@H](CCCCN)C(N)=O` (stereo in doubt) [Seg5D] the “degradation in CF sputum” value (in vitro; 6 h, RP-HPLC) was “protected entirely from degradation” and the metabolised at 48 h, 100 μM (CF sputum proteases) was about 30%.
